“And” between values parts separate entries of the source, which are not always exact repeats. Identical values can stand only once.
Assays:
blood-sugar amount = settings: reported in 1955; cited from earlier work
[1] = test system: human diabetics (University Group Diabetes Program); settings: oral administration, 8 years; cited from earlier work
alloxan diabetic rats = test: Effect on alloxan diabetes in rats (glycosuria, blood-sugar, urinary volume); type: in vivo, male wistar rats; settings: for restraining effect on quantity of glycosuria: Compound TA 80 mg/Kg, Compound NA 20 mg/Kg p.o. once a day for three weeks; for quantity of blood-sugar versus alloxan diabetic control group (in words): FIGS. 3 and 4, after 24 hours and 12 hours fasting; for effect for treatment of alloxan-diabetes (conclusion): alloxan diabetic rats; for blood-sugar level compared with diabetic control group (summary) / quantity of glycosuria compared with diabetic control group (summary) / urinary volume compared with diabetic control group (summary): summary of experiments
Procedure: Experiments were carried out in six-week male wistar rats weighing approximately 180 g. […] After 10 days, animals displaying abnormal quantity of glycosuria were selected as "diabetic" animals. Abnormality was arbitrarily determined as quantity of glycosuria for 24 hours over 0.5 g. Total 32 alloxan diabetic rats were divided into four aliquot groups of every eight rats at random. […] These rats were placed in the metabolism cage equiped with solid foods and drinking water. The foods were removed after 9 hours, and urine was collected from said rats for 24 hours. In other experience, total 45 alloxan diabetic rats were divided into three groups of aliquot. […] These rats were placed in the metabolism cages equiped with drinking water, and urine was collected for 12 hours. Blood was also collected in each case from the carotid artery of the rats under anesthesia. for the urine and the plasma, the following biochemical tests were effected. (a) Quantity of the blood-sugar and the glycosuria: Anthrone method.

pregnant mice = test: Test for malformation in pregnant mice; type: in vivo; settings: oral, 100 to 1200 mg/Kg
beagles = test: Test of subacute and chronic toxicity in beagles; type: in vivo; settings: 100 mg/Kg, three or six months
rats [2] = test: Test of subacute and chronic toxicity in rats; type: in vivo; settings: 100 to 1000 mg/Kg, three or six months
[3] = Test of acute toxicity in mice; type: in vivo; settings: mouse, in vivo
Procedure: (§1) Acute toxicity of Compound TN for males and females of mice rats were tested.

mice = test: Test of acute toxicity in mice; type: in vivo; settings: mice, administerable maximum quantity
Procedure: as §1

diabetics = test: Clinical data: blood sugar and ΔIRI/ΔBS in glucose tolerance test of diabetics; type: in vivo, human
Procedure: There were selected 15 diabetics, whose blood-sugar values are 111-150 mg;, respectively. The diabetics are 56.8 years old in average, ranging from 49 to 65 years old. They consist of 10 males and 5 females.
It was previously confirmed that the body weights of the diabetics are almost not varied during the continuation of dietetics.
There were orally administered a daily dose of six capsules for 8 weeks, each capsule containing 100 mg of the Compound TN.
Before and after the administration of the compound of the present invention, 50 g of sugar are orally administered to carry out glucose tolerance test. Quantities of blood-sugar were measured by means of Autoanalyzer with respect to the blood which was collected from the vein of the elbow. Further, quantities of insulin were measured, in accordance with Double antibody technic, before the glucose tolerance and after 30 minutes tolerance. From the following resulting quantities, value of ΔIRI/ΔBS was calculated.

[4] = Test of acute toxicity in rats; type: in vivo; settings: rat, in vivo
Procedure: as §1

rats [5] = test: Test of acute toxicity in rats; type: in vivo; settings: rats, administerable maximum quantity
Procedure: as §1

pregnant rats = test: Test for malformation in pregnant rats; type: in vivo; settings: oral, 100 to 1200 mg/Kg
Solubility = type: physicochemical
[6] = FIG. 1, urine for 24 hours, 100 mg/Kg p.o. once a day for three weeks

For CCCCNC(=O)NS(=O)(=O)c1ccc(N)cc1 [Carbutamide], the “effect for depressing a blood-sugar amount” value (blood-sugar amount) is listed as “remarkable effect for depressing a blood-sugar amount”.

For [H]/N=C(/N)N/C(=N/[H])NCCc1ccccc1 [Phenformin], the “number of deaths due to heart-blood vessel disorder, compared with placebo group” value [1] is given as 2.5 times.

In the case of CCCCNC(=O)NS(=O)(=O)c1ccc(C)cc1 [Tolbutamide], the “number of deaths due to heart-blood vessel disorder, compared with placebo group” value [1] is listed as 2.5 times.

In the case of O=C(O)c1cccnc1 [Compound NA, nicotinic acid], the “restraining effect on quantity of glycosuria” value (alloxan diabetic rats; FIG. 1, urine for 24 hours) is reported as “the restraining effect could not be found”, the “quantity of blood-sugar versus alloxan diabetic control group (in words)” value (alloxan diabetic rats; three weeks p.o.) is reported as “there can not be found the differences” and the “effect for treatment of alloxan-diabetes (conclusion)” value (from here on “effect for treatment”) (alloxan diabetic rats; three weeks p.o.) is reported as “such effect can not be found”. For the same compound, the “blood-sugar level compared with diabetic control group (summary)” value (alloxan diabetic rats; three weeks p.o.) was “there could not be found the difference”, the “quantity of glycosuria compared with diabetic control group (summary)” value (alloxan diabetic rats; three weeks p.o.) was “there could not be found the difference” and the “urinary volume compared with diabetic control group (summary)” value (alloxan diabetic rats; three weeks p.o.) was “there could not be found the difference”.

With Cc1c(C)c2c(c(C)c1OC(=O)c1cccnc1)CCC(C)(CCCC(C)CCCC(C)CCCC(C)C)O2 (racemic) [Compound TN, dl-α-tocopherol nicotinate] the “effects for mothers, foetuses and neonatal animals” value (pregnant mice) was “there could not be recognized any effects for mothers, foetuses and neonatal animals”, the malformation (pregnant mice) was “no malformation could be entirely found” and the “appearance of toxicity (hematological, blood biochemical, histological searches)” value (beagles) was “there could not be entirely recognized the appearance of the toxicity”. The death case (beagles) was “There could not be found the death case”, the restraint of weight (beagles) was “There could not be found the death case and the restraint of weight” and the “appearance of toxicity (hematological, blood biochemical, histological searches)” value (rats [2]) was “there could not be entirely recognized the appearance of the toxicity”. For the same compound, the death case (rats [2]) was “There could not be found the death case”, the restraint of weight (rats [2]) was “There could not be found the death case and the restraint of weight” and the LD50 ([3]; im) was greater than 15000 mg/kg. It also gave an LD50 ([3]; ip) greater than 4000 mg/kg, an LD50 ([3]; iv) greater than 1000 mg/kg and an LD50 ([3]; po) greater than 20000 mg/kg. The LD50 ([3]; sc) was greater than 20000 mg/kg, the “deaths in acute toxicity test” value (mice) was “there is no case wherein the test animals died” and the degree of adiposity (diabetics; 15 diabetics, 8 weeks) was “there could hardly be found a tolerance with respect to the degree of adiposity”. The “Blood Sugar (2) FBS (fasting blood sugar)” value (diabetics; individual patient, after administration, 600 mg/day p.o. (six 100 mg capsules) for 8 weeks) was 114 mg% and 126 mg% and 111 mg% and 124 mg% and 122 mg% and 119 mg% and 123 mg% and 104 mg% and 110 mg% and 121 mg% and 118 mg%, the “ΔIRI/ΔBS (30 min.)” value (diabetics; individual patient, after administration, 8 weeks, 30 min. tolerance) was 0.39 and 0.31 and 0.38 and 0.36 and 0.41 and 0.33 and 0.42 and 0.45 and 0.44 and 0.35 and 0.49 and the “Blood Sugar (2) 1 hour” value (diabetics; individual patient, after administration, 8 weeks, 1 hour after 50 g glucose tolerance) was 196 mg% and 193 mg% and 178 mg% and 198 mg% and 221 mg% and 201 mg% and 205 mg% and 174 mg% and 164 mg% and 211 mg% and 214 mg% and 195 mg% and 185 mg% and 197 mg%. For the same compound, the “Blood Sugar (2) 2 hours” value (diabetics; individual patient, after administration, 8 weeks, 2 hours after 50 g glucose tolerance) was 185 mg% and 184 mg% and 164 mg% and 195 mg% and 189 mg% and 178 mg% and 186 mg% and 154 mg% and 179 mg% and 181 mg% and 163 mg% and 172 mg% and 190 mg%, the “Blood Sugar (2) 3 hours” value (diabetics; individual patient, after administration, 8 weeks, 3 hours after 50 g glucose tolerance) was 136 mg% and 114 mg% and 121 mg% and 179 mg% and 175 mg% and 154 mg% and 171 mg% and 141 mg% and 105 mg% and 172 mg% and 130 mg% and 153 mg% and the “Blood Sugar (2) 1 hour, mean” value (diabetics; mean of 15, after administration, 8 weeks, 1 hour tolerance, before administration 226.5, P<0.05) was 193.1 mg%. For the same compound, the “Blood Sugar (2) 2 hours, mean” value (diabetics; mean of 15, after administration, 8 weeks, 2 hours tolerance, before administration 203.7, P<0.05) was 179.3 mg%, the “Blood Sugar (2) 3 hours, mean” value (diabetics; mean of 15, after administration, 8 weeks, 3 hours tolerance, before administration 166.1, P<0.05) was 145.5 mg% and the “ΔIRI/ΔBS (30 min.), mean” value (diabetics; mean of 15, after administration, 8 weeks, before administration 0.319, P<0.001) was 0.394. The “Blood Sugar (2) FBS, mean” value (diabetics; mean of 15 diabetics, after administration, 8 weeks, before administration 128.1, P<0.001) was 116.3 mg%, the “reduction of quantity of glycosuria versus diabetic control group (mean)” value (alloxan diabetic rats; [6]) was 1.3 g/day and the “reduction of quantity of glycosuria versus diabetic control group (percent)” value (alloxan diabetic rats; [6]) was 47%. For the same compound, the quantity of glycosuria (alloxan diabetic rats; FIG. 2, urine for 12 hours, p.o. once a day for three weeks, TN 100 mg/Kg or TA 88 + NA 20 mg/Kg, diabetic control 1.24 g/12 hours) was 0.76 g/12 hours, the “quantity of glycosuria versus diabetic control group (in words)” value (alloxan diabetic rats; FIG. 2, urine for 12 hours, three weeks p.o.) was “clearly reduced” and the “urinary volume (in words)” value (alloxan diabetic rats; FIG. 5, after 12 hours, three weeks p.o.) was “reduces”. The “quantity of blood-sugar versus alloxan diabetic control group (in words)” value (alloxan diabetic rats; three weeks p.o.) was “reduces significantly the quantity of the blood-sugar”, the “effect for treatment” value (alloxan diabetic rats; three weeks p.o.) was “unique effect for treatment of alloxan-diabetes” and the “blood-sugar level compared with diabetic control group (summary)” value (alloxan diabetic rats; three weeks p.o.) was “small such as P = 0.05”. The “quantity of glycosuria compared with diabetic control group (summary)” value (alloxan diabetic rats; three weeks p.o.) was “small such as P = 0.05”, the “urinary volume compared with diabetic control group (summary)” value (alloxan diabetic rats; three weeks p.o.) was “small such as P = 0.05” and the LD50 ([4]; im) was greater than 10000 mg/kg. For the same compound, the LD50 ([4]; ip) was greater than 2000 mg/kg, the LD50 ([4]; iv) was greater than 250 mg/kg and the LD50 ([4]; po) was greater than 15000 mg/kg. The LD50 ([4]; sc) was greater than 15000 mg/kg, the “deaths in acute toxicity test” value (rats [5]) was “there is no case wherein the test animals died” and the “effects for mothers, foetuses and neonatal animals” value (pregnant rats) was “there could not be recognized any effects for mothers, foetuses and neonatal animals”. The malformation (pregnant rats) was “no malformation could be entirely found”, the “solubility in acetone, benzene, chloroform, ether and ethanol” value (Solubility; organic solvents) was “easily soluble” and the solubility in water (Solubility; water) was “hardly soluble”.

With CC(=O)Oc1c(C)c(C)c2c(c1C)CCC(C)(CCCC(C)CCCC(C)CCCC(C)C)O2 (racemic) [Compound TA, dl-α-tocopheryl acetate] the “restraining effect on quantity of glycosuria” value (alloxan diabetic rats; FIG. 1, urine for 24 hours) was “the restraining effect could not be found”, the “quantity of blood-sugar versus alloxan diabetic control group (in words)” value (alloxan diabetic rats; three weeks p.o.) was “there can not be found the differences” and the “effect for treatment” value (alloxan diabetic rats; three weeks p.o.) was “such effect can not be found”. The “blood-sugar level compared with diabetic control group (summary)” value (alloxan diabetic rats; three weeks p.o.) was “there could not be found the difference”, the “quantity of glycosuria compared with diabetic control group (summary)” value (alloxan diabetic rats; three weeks p.o.) was “there could not be found the difference” and the “urinary volume compared with diabetic control group (summary)” value (alloxan diabetic rats; three weeks p.o.) was “there could not be found the difference”.
